In a melting point compilation (Tetko et al.; mined from patent text by program, amines drawn as free bases though some values may be those of a salt) one finds melting point data, which are given here for 33 compounds.

Bounds are passed on as bounds.

On to `CCNC(=O)CCC(=O)c1cnc2c(OC)cccc2c1Nc1ccccc1C`, for which the melting point fell in the range of 88.5 to 90 °C.
Next, `COc1cc(Nc2c(C#N)cnc3cc4cc(OCCCCl)c(OC)cc4cc23)c(Cl)cc1Cl`: 220 to 223 °C; `CC(=Cc1cccc(SC(F)(F)F)c1)[N+](=O)[O-]`: 48 °C.
Next, `O=c1[nH]cnc2cccnc12`: 343 to 345 °C; `Cc1ncncc1C(=O)Nc1ccc(-n2nc(C3CC3)cc2C2CC2)cc1`: 89 to 95 °C.
The value for `Cc1nccn1-c1cc2[nH]c(=O)c(=O)n(O)c2cc1C(F)(F)F` was more than 300 °C.
Turning to `O=C(Oc1ccc2cc3cc(OC(=O)c4ccc(O)cc4)ccc3cc2c1)c1ccc(O)cc1`, the melting point turned out to be 324 °C.
Next, `O=c1cc(-c2ccccc2)oc2ccc(OCCCCCCCCN3CCC(O)CC3)cc12`: 57 to 58 °C.
`CC(C)(C)OC(=O)N1CCC2(CC1)CSC1=C(O2)c2cc(-c3ccccc3C(F)(F)F)ccc2C(=O)C1=O` came in with a melting point of 223 to 225 °C.
Next, `CCOC(=O)c1c(N2CCN(C(=O)c3cccs3)CC2)c2cnccc2n(Cc2ccc(F)cc2)c1=O`: 132 °C; `CCCC1=C(C(=O)OCC)C(c2cccc(OC)c2OC)c2c[nH]nc2N1` (stereo not drawn): 205 to 206 °C; `CCOC(=O)c1cn(C)c2nc3c(F)c(F)c(F)cc3cc2c1=O`: 320 °C.
The value for `CC(O)c1ccc2occ(-c3nnn[nH]3)c(=O)c2c1` (stereo not drawn) was 234 to 236 °C; that for `CCCC(=O)N[C@@H]1CCc2cccc(N3CCN(C)CC3)c2C1` was 131 to 132 °C; that for `COc1cccc2nc(-c3ccc4c(c3)NC(=O)C4(C)C)[nH]c12` was 222 to 225 °C.
Next, `CCOC(=O)C(=CNc1ccc(Br)cn1)[N+](=O)[O-]`: 141 to 142 °C.
Turning to `CCCNC(=O)C(C)=Cc1ccc2c(c1)c(Cc1ccc(C(=O)O)cc1OC)cn2CC(=O)N(C)C`, the melting point is 232 to 235 °C.
Next, `CCC(=O)Nc1cccc(NC(=O)C2CC2)c1`: 185 to 186 °C; `Nc1ccc(N=Nc2ccc(N)c(C(F)(F)F)c2)c(C(F)(F)F)c1`: 136 °C.
Next, `COC(=O)c1nc(-c2ccco2)cc(N)c1Cl`: 145 to 150 °C.
Next, `COc1cc(C(C)C)c(NC(=O)CN2CCN(CCSc3nc4cccc(C(C)=O)c4o3)CC2)c(C(C)C)c1`: 185 to 186 °C.
The compound `CN(CCCN1CCN(c2ccccc2C2CC2)CC1)c1nccc(C(N)=O)n1` had a melting point of 170 °C.
Next, `O=C(CCl)N1CC(c2ccc(F)cc2)Sc2ccccc21` (stereo not drawn): 122 to 124 °C.
The value for `Cc1ccc(-c2ccc(Cl)c(C(=O)NCC34CC5CC(CC(C5)C3)C4)c2)nc1C(=O)O` was 180 to 185 °C.
`O=c1nc(-c2cccc(Cl)c2)c2cc(C(c3ccc(Cl)cc3)n3ccnc3)ccc2[nH]1` (stereo not drawn) showed a melting point of 255 °C.
Compound `CCOC(=O)/C=C/c1cn(Cc2ccc(Oc3ccccc3)cc2)nc1OCc1nc(-c2ccccc2)oc1C` showed a melting point of 93 to 94 °C.
The value for `CCOC(=O)Cc1nc(-c2ccc(F)cc2)c(-c2ccc(S(C)(=O)=O)cc2)o1` was 123 to 124 °C.
Regarding `COCCOC(=O)c1cc(-c2c(C(F)(F)F)nc(OC)[nH]c2=O)c(F)cc1Cl`, the melting point lay in the range of 63 to 65 °C.
Take `NC(=O)c1ccc([N+](=O)[O-])cc1[N+](=O)[O-]`: the melting point is 202 to 204 °C.
Next, `COc1cc(OC)cc(N2CCN(C(=O)N(C)c3nc(C)c(C)nc3OC)CC2)c1`: 80 to 82 °C.
Next, `O=C(O)Cc1ccc(CNC(=O)C2Cc3ccccc3N2S(=O)(=O)c2ccc(-c3ccc(F)cc3Cl)cc2)cc1` (stereo not drawn): 119 °C; `CC(C)C(C)(C)C(O)C(Cc1ccc(Cl)cc1)n1cncn1` (stereo not drawn): 106 °C.
Compound `COC(=O)c1ccc(-c2nc(-c3ccc(Cl)cc3)no2)c(N)c1` had a melting point of 227 to 228 °C.
